{"source": "patent US8633245B2", "about": "“PAI-1 inhibitor” (Institute of Medicinal Molecular Design, Inc., priority 2008, dated 2014)", "assay_type_in_all_cases": "biochemical", "key": {"recombinant human PAI-1 [1]": {"target": "T1, recombinant human PAI-1 (Homo sapiens, UniProt P05121)", "T1 construct": "purchased Molecular Innovations, Inc", "T1 sequence (P05121 24-402)": "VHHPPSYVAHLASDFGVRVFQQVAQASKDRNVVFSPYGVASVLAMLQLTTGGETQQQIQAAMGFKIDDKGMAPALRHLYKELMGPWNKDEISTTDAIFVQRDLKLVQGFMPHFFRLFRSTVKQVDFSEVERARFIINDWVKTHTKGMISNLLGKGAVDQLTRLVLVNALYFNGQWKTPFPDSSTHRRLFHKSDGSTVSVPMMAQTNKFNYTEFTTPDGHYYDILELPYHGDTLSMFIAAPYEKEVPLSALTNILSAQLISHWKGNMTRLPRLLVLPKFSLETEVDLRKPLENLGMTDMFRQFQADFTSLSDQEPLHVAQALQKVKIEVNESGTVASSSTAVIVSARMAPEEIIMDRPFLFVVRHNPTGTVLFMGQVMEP", "experiment": "Test Example 2: human PAI-1 inhibitory activity (tPA fluorogenic substrate, pH 7.4 HEPES buffer)", "conditions": "for IC50: human PAI-1, calculated from the inhibition rates; for Inhibition Rate of PAI-1 Activity (%): HEPES buffer; for inhibition at 3 µM: read-out: Inhibition Rate of PAI-1 Activity (%)", "description": "0.1 M HEPES, 0.1 M NaCl. 1 mM EDTA. 0.1% Polyethylene glycol 8,000 (Hampton Research Corporation),\n2 mM Dimethyldecylphoshine oxide [Apo-10] (Fluka Corporation)"}, "recombinant rat PAI-1": {"target": "T2, recombinant rat PAI-1 (Rattus norvegicus, UniProt P20961)", "T2 construct": "purchased Molecular Innovations, Inc", "T2 sequence (P20961 24-402)": "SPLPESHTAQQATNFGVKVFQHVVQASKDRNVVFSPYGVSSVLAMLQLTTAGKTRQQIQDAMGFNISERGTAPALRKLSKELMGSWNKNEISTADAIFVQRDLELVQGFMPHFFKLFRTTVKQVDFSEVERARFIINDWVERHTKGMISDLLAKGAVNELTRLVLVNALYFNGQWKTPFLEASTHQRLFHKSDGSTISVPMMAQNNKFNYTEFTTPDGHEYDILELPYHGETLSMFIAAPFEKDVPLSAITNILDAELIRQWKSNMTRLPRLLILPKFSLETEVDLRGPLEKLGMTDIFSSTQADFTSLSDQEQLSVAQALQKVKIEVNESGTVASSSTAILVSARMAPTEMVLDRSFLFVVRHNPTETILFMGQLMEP", "experiment": "Test Example 3: rat PAI-1 inhibitory activity (as Test Example 2 with rat PAI-1)", "conditions": "for IC50 / Inhibition Rate of PAI-1 Activity (%): rat PAI-1; for IC50: calculated from the inhibition rates; for inhibition at 10 µM: read-out: Inhibition Rate of PAI-1 Activity (%)", "protocol": "To this solution, 6 μl of 80 nM recombinant human PAI-1 (Molecular Innovations, Inc.) solution prepared with Tris buffer was added, and the plate was incubated for 5 minutes at room temperature. Furthermore, 30 μl of 800 IU/ml two-chain tPA (Activity Standard; American diagnostica, inc.) prepared with Tris buffer was added, and the mixed solution was incubated for 15 minutes at room temperature. Then, 30 μl of 400 μM fluorogenic substrate (Pyr-Gly-Arg-MCA; Peptide Institute, Inc.) for tPA prepared with Tris buffer was added and reacted for 30 minutes at room temperature."}, "recombinant human PAI-1 [2]": {"target": "T1, recombinant human PAI-1", "experiment": "Test Example 1: human PAI-1 inhibitory activity (tPA fluorogenic substrate, pH 7.5 Tris buffer)", "conditions": "Tris buffer", "description": "50 mM Tris, 150 mM NaCl, 10 μg/ml BSA, 0.01% Tween80 (SIGMA-ALDRICH Corporation)"}}}
{"molecule": "CC(C)(C)c1ccc(Oc2cccc(-c3ccc(OC(F)(F)F)cc3)c2CCC(=O)O)cc1", "note": "[Compound 94]", "values": [{"measurement": "IC50", "setting": "recombinant human PAI-1 [1]", "result": 1340, "unit": "nM"}, {"measurement": "IC50", "setting": "recombinant rat PAI-1", "result": 3180, "unit": "nM"}]}
{"molecule": "CC(C)(C)c1ccc(Oc2cc(Oc3ccc(OC(F)(F)F)cc3)ccc2CCC(=O)O)cc1", "note": "[Compound 90]", "values": [{"measurement": "IC50", "setting": "recombinant human PAI-1 [1]", "result": 1350, "unit": "nM"}, {"measurement": "IC50", "setting": "recombinant rat PAI-1", "result": 2650, "unit": "nM"}]}
{"molecule": "CC(C)(C)c1ccc(COc2ccc(Oc3ccc(OC(F)(F)F)cc3)cc2CCC(=O)O)cc1", "note": "[Compound 96]", "values": [{"measurement": "IC50", "setting": "recombinant human PAI-1 [1]", "result": 1330, "unit": "nM"}, {"measurement": "IC50", "setting": "recombinant rat PAI-1", "result": 2900, "unit": "nM"}]}
{"molecule": "CC(C)(C)c1ccc(COc2c(CCC(=O)O)cccc2-c2ccc(OC(F)(F)F)cc2)cc1", "note": "[Compound 88]", "values": [{"measurement": "IC50", "setting": "recombinant human PAI-1 [1]", "result": 1310, "unit": "nM"}, {"measurement": "IC50", "setting": "recombinant rat PAI-1", "result": 3240, "unit": "nM"}]}
{"molecule": "CCN(CC)c1ccc(N(CCCc2ccccc2)C(=O)C(=O)O)c(-c2ccc(OC(F)(F)F)cc2)c1", "note": "[Compound 238]", "values": [{"measurement": "IC50", "setting": "recombinant human PAI-1 [1]", "result": 1570, "unit": "nM"}, {"measurement": "IC50", "setting": "recombinant rat PAI-1", "result": 3140, "unit": "nM"}]}
{"molecule": "CN(C)c1ccc(N(Cc2ccc(C(C)(C)C)cc2)C(=O)C(=O)O)cc1-c1ccc(OC(F)(F)F)cc1", "note": "[Compound 214]", "values": [{"measurement": "Inhibition Rate of PAI-1 Activity (%)", "setting": "recombinant human PAI-1 [1]; Compound Concentration 0.1 μM", "result": 4, "unit": "%"}, {"measurement": "Inhibition Rate of PAI-1 Activity (%)", "setting": "recombinant human PAI-1 [1]; Compound Concentration 0.3 μM", "result": 2, "unit": "%"}, {"measurement": "Inhibition Rate of PAI-1 Activity (%)", "setting": "recombinant human PAI-1 [1]; Compound Concentration 1 μM", "result": 40, "unit": "%"}, {"measurement": "Inhibition Rate of PAI-1 Activity (%)", "setting": "recombinant human PAI-1 [1]; Compound Concentration 3 μM", "result": 96, "unit": "%"}, {"measurement": "Inhibition Rate of PAI-1 Activity (%)", "setting": "recombinant human PAI-1 [2]; Compound Concentration 5 μM", "result": 87, "unit": "%"}, {"measurement": "Inhibition Rate of PAI-1 Activity (%)", "setting": "recombinant human PAI-1 [2]; Compound Concentration 10 μM", "result": 93, "unit": "%"}, {"measurement": "Inhibition Rate of PAI-1 Activity (%)", "setting": "recombinant rat PAI-1; compound concentration 0.3 μM", "result": 0, "unit": "%"}, {"measurement": "Inhibition Rate of PAI-1 Activity (%)", "setting": "recombinant rat PAI-1; compound concentration 1 μM", "result": 8, "unit": "%"}, {"measurement": "Inhibition Rate of PAI-1 Activity (%)", "setting": "recombinant rat PAI-1; compound concentration 3 μM", "result": 77, "unit": "%"}, {"measurement": "Inhibition Rate of PAI-1 Activity (%)", "setting": "recombinant rat PAI-1; compound concentration 10 μM", "result": 97, "unit": "%"}]}
{"molecule": "Cc1cc(N(C)C)c(-c2ccc(OC(F)(F)F)cc2)cc1N(Cc1ccc(C(C)(C)C)cc1)C(=O)C(=O)O", "note": "[Compound 215]", "values": [{"measurement": "Inhibition Rate of PAI-1 Activity (%)", "setting": "recombinant human PAI-1 [1]; Compound Concentration 0.1 μM", "result": 7, "unit": "%"}, {"measurement": "Inhibition Rate of PAI-1 Activity (%)", "setting": "recombinant human PAI-1 [1]; Compound Concentration 0.3 μM", "result": 18, "unit": "%"}, {"measurement": "Inhibition Rate of PAI-1 Activity (%)", "setting": "recombinant human PAI-1 [1]; Compound Concentration 1 μM", "result": 54, "unit": "%"}, {"measurement": "Inhibition Rate of PAI-1 Activity (%)", "setting": "recombinant human PAI-1 [1]; Compound Concentration 3 μM", "result": 95, "unit": "%"}, {"measurement": "Inhibition Rate of PAI-1 Activity (%)", "setting": "recombinant human PAI-1 [2]; Compound Concentration 5 μM", "result": 90, "unit": "%"}, {"measurement": "Inhibition Rate of PAI-1 Activity (%)", "setting": "recombinant human PAI-1 [2]; Compound Concentration 10 μM", "result": 92, "unit": "%"}, {"measurement": "Inhibition Rate of PAI-1 Activity (%)", "setting": "recombinant rat PAI-1; compound concentration 0.3 μM", "result": 2, "unit": "%"}, {"measurement": "Inhibition Rate of PAI-1 Activity (%)", "setting": "recombinant rat PAI-1; compound concentration 1 μM", "result": 16, "unit": "%"}, {"measurement": "Inhibition Rate of PAI-1 Activity (%)", "setting": "recombinant rat PAI-1; compound concentration 3 μM", "result": 84, "unit": "%"}, {"measurement": "Inhibition Rate of PAI-1 Activity (%)", "setting": "recombinant rat PAI-1; compound concentration 10 μM", "result": 97, "unit": "%"}]}
{"molecule": "CCCCC(c1ccc(C(C)(C)C)cc1)N(C(=O)C(=O)O)c1ccc(-c2ccc(OC(F)(F)F)cc2)cc1", "note": "(stereo not drawn) [Compound 221]", "values": [{"measurement": "IC50", "setting": "recombinant human PAI-1 [1]", "result": 930, "unit": "nM"}, {"measurement": "inhibition at 3 µM", "setting": "recombinant human PAI-1 [1]", "result": "> 99", "unit": "%"}, {"measurement": "IC50", "setting": "recombinant rat PAI-1", "result": 1270, "unit": "nM"}]}
{"molecule": "CC(C)(C)c1ccc(Oc2ccc(Oc3ccc(OC(F)(F)F)cc3)cc2CCC(=O)O)cc1", "note": "[Compound 100]", "values": [{"measurement": "IC50", "setting": "recombinant human PAI-1 [1]", "result": 1340, "unit": "nM"}, {"measurement": "IC50", "setting": "recombinant rat PAI-1", "result": 2300, "unit": "nM"}]}
{"molecule": "CCCCOc1ccc(-c2ccc(OC(F)(F)F)cc2)cc1N(CCCCc1ccccc1)C(=O)C(=O)O", "note": "[Compound 231]", "values": [{"measurement": "IC50", "setting": "recombinant human PAI-1 [1]", "result": 1190, "unit": "nM"}, {"measurement": "IC50", "setting": "recombinant rat PAI-1", "result": 1570, "unit": "nM"}, {"measurement": "inhibition at 10 µM", "setting": "recombinant rat PAI-1", "result": "> 99", "unit": "%"}]}
{"molecule": "CC(C)(C)c1ccc(COc2cc(-c3ccc(OC(F)(F)F)cc3)ccc2CCC(=O)O)cc1", "note": "[Compound 76]", "values": [{"measurement": "IC50", "setting": "recombinant human PAI-1 [1]", "result": 1160, "unit": "nM"}, {"measurement": "IC50", "setting": "recombinant rat PAI-1", "result": 2880, "unit": "nM"}]}
{"molecule": "CCC(CC)Oc1ccc(N(CCCc2ccccc2)C(=O)C(=O)O)cc1-c1ccc(OC(F)(F)F)cc1", "note": "[Compound 230]", "values": [{"measurement": "IC50", "setting": "recombinant human PAI-1 [1]", "result": 1320, "unit": "nM"}, {"measurement": "IC50", "setting": "recombinant rat PAI-1", "result": 1830, "unit": "nM"}]}
{"molecule": "CC(C)(Oc1cc(-c2ccc(OC(F)(F)F)cc2)ccc1OCc1ccc(C(C)(C)C)cc1)C(=O)O", "note": "[Compound 106]", "values": [{"measurement": "IC50", "setting": "recombinant human PAI-1 [1]", "result": 1150, "unit": "nM"}, {"measurement": "IC50", "setting": "recombinant rat PAI-1", "result": 1710, "unit": "nM"}, {"measurement": "inhibition at 10 µM", "setting": "recombinant rat PAI-1", "result": "> 99", "unit": "%"}]}
{"molecule": "CC(C)(C)c1ccc(C(c2ccccc2)N(C(=O)C(=O)O)c2ccc(-c3ccc(OC(F)(F)F)cc3)cc2)cc1", "note": "(stereo not drawn) [Compound 222]", "values": [{"measurement": "IC50", "setting": "recombinant human PAI-1 [1]", "result": 1060, "unit": "nM"}, {"measurement": "inhibition at 3 µM", "setting": "recombinant human PAI-1 [1]", "result": "> 99", "unit": "%"}, {"measurement": "IC50", "setting": "recombinant rat PAI-1", "result": 1340, "unit": "nM"}]}
{"molecule": "CC(C)(C)c1ccc(COc2cc(Oc3ccc(OC(F)(F)F)cc3)ccc2CCC(=O)O)cc1", "note": "[Compound 78]", "values": [{"measurement": "IC50", "setting": "recombinant human PAI-1 [1]", "result": 1380, "unit": "nM"}, {"measurement": "IC50", "setting": "recombinant rat PAI-1", "result": 2330, "unit": "nM"}]}
{"molecule": "CC(C)(Oc1cc(-c2ccc(OC(F)(F)F)cc2)ccc1OCCCCc1ccccc1)C(=O)O", "note": "[Compound 116]", "values": [{"measurement": "IC50", "setting": "recombinant human PAI-1 [1]", "result": 1650, "unit": "nM"}, {"measurement": "IC50", "setting": "recombinant rat PAI-1", "result": 3240, "unit": "nM"}]}
{"molecule": "CC(C)(C)c1ccc(Oc2ccc(-c3ccc(OC(F)(F)F)cc3)cc2CCC(=O)O)cc1", "note": "[Compound 13]", "values": [{"measurement": "inhibition at 10 µM", "setting": "recombinant rat PAI-1", "result": "> 99", "unit": "%"}]}
{"molecule": "CC(C)(C)c1ccc(COc2c(OCC(=O)O)cccc2-c2ccc(OC(F)(F)F)cc2)cc1", "note": "[Compound 117]", "values": [{"measurement": "IC50", "setting": "recombinant human PAI-1 [1]", "result": 1040, "unit": "nM"}, {"measurement": "inhibition at 3 µM", "setting": "recombinant human PAI-1 [1]", "result": "> 99", "unit": "%"}, {"measurement": "IC50", "setting": "recombinant rat PAI-1", "result": 2480, "unit": "nM"}]}
{"molecule": "O=C(O)CCc1c(Oc2ccc(OC(F)(F)F)cc2)cccc1Oc1ccc(OC(F)(F)F)cc1", "note": "[Compound 98]", "values": [{"measurement": "IC50", "setting": "recombinant human PAI-1 [1]", "result": 1540, "unit": "nM"}, {"measurement": "IC50", "setting": "recombinant rat PAI-1", "result": 3530, "unit": "nM"}]}
{"molecule": "CC(C)(Oc1cccc(-c2ccc(OC(F)(F)F)cc2)c1OCc1ccc(C(C)(C)C)cc1)C(=O)O", "note": "[Compound 118]", "values": [{"measurement": "IC50", "setting": "recombinant human PAI-1 [1]", "result": 1010, "unit": "nM"}, {"measurement": "inhibition at 3 µM", "setting": "recombinant human PAI-1 [1]", "result": "> 99", "unit": "%"}, {"measurement": "IC50", "setting": "recombinant rat PAI-1", "result": 1920, "unit": "nM"}]}
{"molecule": "CCCCOc1ccc(N(CCCCc2ccccc2)C(=O)C(=O)O)cc1-c1ccc(OC(F)(F)F)cc1", "note": "[Compound 227]", "values": [{"measurement": "IC50", "setting": "recombinant human PAI-1 [1]", "result": 1110, "unit": "nM"}, {"measurement": "IC50", "setting": "recombinant rat PAI-1", "result": 1950, "unit": "nM"}]}
